Measurements reported in the supplement of paper PMC10307832.

Assays:
Assay in all cases: relative viability (nuclei count vs DMSO), 5 days (fraction); higher = more cells survive
NCI-H1703 = system: NCI-H1703
Procedure, shortened: (§1)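 Relative viability was taken as the ratio of nuclei in treated wells to nuclei in vehicle wells. Lung cancer cell lines in 1536-well plates received compounds by pin tool one day after seeding, either one drug alone or a fixed anchor-drug dose plus five library-drug doses (not always all listed) in √10 steps. Nuclei were counted on 4× images after 5 days of treatment, and values are medians of duplicate plates.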

NCI-H1437 = system: NCI-H1437
Procedure, shortened: as §1

NCI-H1648 = system: NCI-H1648
Procedure, shortened: as §1

A549 = system: A549
Procedure, shortened: as §1

IA-LM = system: IA-LM
Procedure, shortened: as §1

Structure (SMILES)	relative viability (NCI-H1703; first compound 0.04 µM)	relative viability (NCI-H1703; first compound 0.1265 µM)	relative viability (NCI-H1703; first compound 1.265 µM)	relative viability (NCI-H1703; first compound 4 µM)	relative viability (NCI-H1437; first compound 0.04 µM)	relative viability (NCI-H1437; first compound 0.1265 µM)	relative viability (NCI-H1437; first compound 0.4 µM)	relative viability (NCI-H1437; first compound 4 µM)	relative viability (NCI-H1648; first compound 0.04 µM)	relative viability (NCI-H1648; first compound 0.1265 µM)	relative viability (NCI-H1648; first compound 0.4 µM)	relative viability (NCI-H1648; first compound 1.265 µM)	relative viability (NCI-H1648; first compound 4 µM)	relative viability (NCI-H1437; first compound 1.265 µM)	relative viability (A549; first compound 0.04 µM)	relative viability (A549; first compound 0.1265 µM)	relative viability (A549; first compound 0.4 µM)	relative viability (A549; first compound 1.265 µM)	relative viability (A549; first compound 4 µM)	relative viability (IA-LM; first compound 0.04 µM)	relative viability (IA-LM; first compound 0.1265 µM)	relative viability (IA-LM; first compound 0.4 µM)	relative viability (IA-LM; first compound 1.265 µM)	relative viability (IA-LM; first compound 4 µM)	relative viability (NCI-H1703; first compound 0.4 µM)
COc1cc(N2CCC(C(N)=O)CC2)ccc1Nc1nc(N)c(Cl)c(Nc2ccccc2S(=O)(=O)C(C)C)n1 [HG-5-88-01] + NC(=O)Nc1cc(-c2cccc(F)c2)sc1C(=O)N[C@H]1CCCNC1 [AZD7762] (partner 0.2 µM)	0.106	0.133	0.122	0.124	1.13	1.13	1.07	1.2	0.63	0.624	0.695	0.683	0.654	–	–	–	–	–	–	–	–	–	–	–	–
COc1cc(N2CCC(C(N)=O)CC2)ccc1Nc1nc(N)c(Cl)c(Nc2ccccc2S(=O)(=O)C(C)C)n1 [HG-5-88-01] + Nc1nc2[nH]cc(CCc3ccc(C(=O)N[C@@H](CCC(=O)O)C(=O)O)cc3)c2c(=O)[nH]1 [Pemetrexed] (partner 0.2 µM)	–	–	–	–	0.296	0.334	0.267	0.277	0.772	0.719	0.605	0.596	0.562	0.327	–	–	–	–	–	–	–	–	–	–	–
COc1cc(N2CCC(C(N)=O)CC2)ccc1Nc1nc(N)c(Cl)c(Nc2ccccc2S(=O)(=O)C(C)C)n1 [HG-5-88-01] + Nc1ncn([C@H]2C[C@H](O)[C@@H](CO)O2)c(=O)n1 [Decitabine] (partner 2 µM)	–	–	–	–	0.529	0.565	0.465	0.821	0.5	0.443	0.457	0.359	0.292	0.579	0.296	0.34	0.274	0.246	0.388	–	–	–	–	–	–
COc1cc(N2CCC(C(N)=O)CC2)ccc1Nc1nc(N)c(Cl)c(Nc2ccccc2S(=O)(=O)C(C)C)n1 [HG-5-88-01] + O=C(CCCCCCC(=O)Nc1ccccc1)NO [Vorinostat] (partner 1 µM)	–	–	–	–	0.899	0.897	0.645	0.613	0.616	0.307	0.626	0.308	0.301	0.78	–	–	–	–	–	1.03	1.01	0.776	0.825	0.899	–
Clc1ccc(Nc2nnc(Cc3ccncc3)c3ccccc23)cc1 [Vatalanib] + CC(=O)Nc1cccc(-n2c(=O)n(C3CC3)c(=O)c3c(Nc4ccc(I)cc4F)n(C)c(=O)c(C)c32)c1 [Trametinib] (partner 0.02 µM)	–	–	–	–	0.571	0.499	0.554	0.486	0.407	0.463	0.577	0.467	0.578	0.451	–	–	–	–	–	–	–	–	–	–	–
Clc1ccc(Nc2nnc(Cc3ccncc3)c3ccccc23)cc1 [Vatalanib] + CC(=O)c1c(C)c2cnc(Nc3ccc(N4CCNCC4)cn3)nc2n(C2CCCC2)c1=O [Palbociclib] (partner 0.5 µM)	–	–	–	–	0.309	0.318	0.356	0.279	0.268	0.307	0.26	0.233	0.302	0.294	–	–	–	–	–	–	–	–	–	–	–
Clc1ccc(Nc2nnc(Cc3ccncc3)c3ccccc23)cc1 [Vatalanib] + NC(=O)Nc1cc(-c2cccc(F)c2)sc1C(=O)N[C@H]1CCCNC1 [AZD7762] (partner 0.2 µM)	0.128	0.14	–	0.109	1.07	1.08	1.18	0.997	0.528	0.632	0.665	0.655	0.735	1.06	–	–	–	–	–	–	–	–	–	–	0.126
Clc1ccc(Nc2nnc(Cc3ccncc3)c3ccccc23)cc1 [Vatalanib] + Nc1nc2[nH]cc(CCc3ccc(C(=O)N[C@@H](CCC(=O)O)C(=O)O)cc3)c2c(=O)[nH]1 [Pemetrexed] (partner 0.2 µM)	–	–	–	–	0.33	0.342	0.328	0.275	0.67	0.674	0.691	0.741	0.718	0.26	–	–	–	–	–	–	–	–	–	–	–
Clc1ccc(Nc2nnc(Cc3ccncc3)c3ccccc23)cc1 [Vatalanib] + Nc1ncn([C@H]2C[C@H](O)[C@@H](CO)O2)c(=O)n1 [Decitabine] (partner 2 µM)	–	–	–	–	0.53	0.523	0.573	0.608	0.497	0.462	0.514	0.425	0.482	0.587	0.238	0.451	0.313	0.213	0.295	–	–	–	–	–	–
Clc1ccc(Nc2nnc(Cc3ccncc3)c3ccccc23)cc1 [Vatalanib] + O=C(CCCCCCC(=O)Nc1ccccc1)NO [Vorinostat] (partner 1 µM)	–	–	–	–	0.836	0.851	0.88	0.673	0.32	0.644	0.562	0.42	0.444	0.616	–	–	–	–	–	0.952	1.24	0.895	0.99	0.976	–
